Results published in the supplement of paper PMC6470124.

Tests used:
[1] = absolute recovery over mixed-bed multilayer solid-phase extraction; higher = better recovery; settings: enrichment method: SPE
Method in brief: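 Absolute recovery was calculated by comparing background-corrected response ratios of samples spiked before extraction with those spiked after it, averaged over at least two replicates. Wastewater (100–250 mL, adjusted to pH 6.5 and glass-fibre filtered) or 1000 mL of unfiltered nanopure water was passed through a three-layer mixed-bed cartridge and eluted with basic and then acidic ethyl acetate/methanol. Standards were added before extraction, after extraction, or not at all, at 200 ng/L in water or 1000 ng/L in wastewater, with exceptions for some classes. Internal standards were added afterwards, and samples were analysed by liquid chromatography with high-resolution tandem mass spectrometry in both ionisation modes.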

[2] = LC retention time (Atlantis T3, 5-95% MeOH gradient, 0.1% formic acid); higher = more retained / less polar
Method in brief: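 Retention times were recorded for reference standards on a polar reversed-phase C18 column. The standards were of purity ≥ 95%, and the Atlantis T3 column (3 × 150 mm, 3 μm) was run at 0.3 mL/min with a gradient from 5 to 95% methanol over 17.5 min, both water and methanol containing 0.1% formic acid. Detection used high-resolution tandem mass spectrometry on a QExactive Plus, with positive and negative electrospray in separate runs, and peaks were integrated in TraceFinder (5 ppm tolerance, at least three points per peak) before being checked by hand.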

[3] = absolute recovery over vacuum-assisted evaporative concentration; higher = better recovery; settings: enrichment method: VEC
Method in brief: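 Standards were spiked into water samples before concentration, after concentration or not at all; volumes were 6 mL influent, 15 mL effluent and 60 mL surface or nanopure water. Spiking levels were 200 ng/L for nanopure and surface water and 1000 ng/L for wastewater, adjusted by class and compound. After evaporation at 55 °C and 20 mbar to about 0.3 mL, samples were brought to 0.4 mL, centrifuged, given internal standards and analysed by LC-HRMS/MS. Absolute recovery equals (response ratio pre − unspiked)/(post − unspiked) × 100, based on averages of ≥ 2 replicates.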

Structure (SMILES)	absolute recovery ([1]; nanopure water)	absolute recovery ([1]; surface water)	absolute recovery ([1]; wastewater effluent)	absolute recovery ([1]; wastewater influent)	LC retention time [2]	absolute recovery ([3]; wastewater effluent)	absolute recovery ([3]; wastewater influent)
COc1cc(OC)nc(NC(=O)[N-]S(=O)(=O)N(C)S(C)(=O)=O)n1 [Amidosulfuron]	94.7%	101%	93.3%	111%	18 min	112%	98.2%
CCOC1Oc2ccc(OS(C)(=O)=O)cc2C1(C)C (configuration not stated) [Ethofumesat]	98.7%	102%	96.1%	92%	19.2 min	105%	94%
CCOc1cc(Oc2ccc(C(F)(F)F)cc2Cl)ccc1[N+](=O)[O-] [Oxyfluorfen]	93.8%	83.9%	82.2%	108%	21 min	87.1%	92.7%
Cc1nn(-c2cc(NS(C)(=O)=O)c(Cl)cc2Cl)c(=O)n1C(F)F [Sulfentrazon]	97.5%	100%	92.9%	88.9%	17.3 min	104%	107%
CC(C)Oc1cccc(NC(=O)c2ccccc2C(F)(F)F)c1 [Flutolanil]	104%	104%	95.7%	98%	19.5 min	94%	103%
CC(C)N(Cc1ccccc1)C(=O)C(C)(C)C [Tebutam]	85.7%	88.7%	81.3%	89.5%	20.5 min	52.3%	46.1%
O=[N+]([O-])N=C1NCCN1Cc1ccc(Cl)nc1 [Imidacloprid]	97.8%	96.7%	95.4%	91.9%	13.4 min	103%	98.6%
CC1(C(=O)[O-])CCC2(C)CCC3(C)C(=CC(=O)C4C5(C)CCC(O)C(C)(C)C5CCC43C)C2C1 (stereo not drawn) [18-beta-Glycyrrhetinic-acid]	90.6%	103%	84.8%	90.8%	24.5 min	88.9%	27.7%
CC#Cc1cc(C)nc(Nc2ccccc2)n1 [Mepanipyrim]	93.5%	107%	103%	94.9%	20.2 min	95.3%	62.1%
O=C1NCCN1Cc1ccc(Cl)nc1 [Imidacloprid-urea]	117%	108%	103%	94.9%	13.2 min	108%	104%
Fc1ccc(Oc2ccnc3cc(Cl)cc(Cl)c23)cc1 [Quinoxyfen]	63.7%	76.4%	78.1%	53.1%	22.9 min	69.8%	
O=P1(N(CCCl)CCCl)NCCCO1 (configuration not stated) [Cyclophosphamid]	98.1%	96.4%	93.9%	94.5%	16.1 min	104%	100%
COc1ccc2c(c1)c(CC(=O)OCC(=O)[O-])c(C)n2C(=O)c1ccc(Cl)cc1 [Acemetacin]	76.1%	59.7%	75.6%	116%	21.4 min	97.8%	99.4%
Cn1sc(Cl)cc1=O [5-Chloro-2-methyl-4-isothiazolin-3-on (=CMI)]	85.1%	56.7%	66.5%		12.4 min	65.2%	
CON=C(C(=O)OC)c1ccccc1CON=C(C)c1cccc(C(F)(F)F)c1 [Trifloxystrobin]		97.3%	88.9%	99.8%	21.4 min	77.4%	97.5%
C[NH+](C)C(C)(C)CO [2-(Dimethylamino)-2-methyl-1-propanol]	45.5%	7.1%	10.1%		3.5 min	108%	
CCOC(=O)C1(c2ccccc2)CCC=CC1[NH+](C)C (configuration not stated) [Tilidine]	73.9%	78.8%	79.5%	83.5%	12.6 min	70%	63.5%
O=C(NC(=O)c1c(F)cccc1F)Nc1ccc(Cl)cc1 [Diflubenzuron]	101%	138%	114%	67.9%	20.5 min	112%	147%
CC1(C)CC(O)CC(C)(C)[NH+]1CCO [4-Hydroxy-1-(2-hydroxyethyl)-2-2-6-6-tetramethylpiperidine]	71.9%	61.7%	54.6%	52.7%	4.55 min	92.4%	130%
C[NH2+]C(C)C(O)c1ccccc1 (configuration not stated) [Ephedrin]	93.4%	93.3%	89.3%	89.4%	9.53 min	107%	99%
Cc1ncc2n1-c1ccc(Cl)cc1C(c1ccccc1F)=NC2 [Midazolam]	87.5%	90.5%	89.6%	83%	14.5 min	102%	106%
Nc1nc(N)[nH+]c(NC2CC2)n1 [Cyromazin]	83.7%		88.1%	91.5%	7.27 min	101%	104%

Results, then the molecule that gave them:

absolute recovery ([1]; nanopure water)	absolute recovery ([1]; surface water)	absolute recovery ([1]; wastewater effluent)	absolute recovery ([1]; wastewater influent)	LC retention time [2]	absolute recovery ([3]; wastewater effluent)	absolute recovery ([3]; wastewater influent)	Structure (SMILES)
87.9%	93.7%	91.7%	86.8%	11 min	113%	87.2%	C[NH+](C)CCC(c1ccccc1)c1ccccn1 (configuration not stated) [Pheniramine]
95.5%	102%	102%	84.4%	19.9 min	104%	109%	COCCN(C(=O)CS(=O)(=O)[O-])c1c(C)cccc1C [Dimethachlor-ESA]
97.7%	98.5%	92.1%	94.1%	18.8 min	109%	103%	CN(C)C(=O)Nc1ccc(Cl)c(Cl)c1 [Diuron]
98%	107%	96.9%	95%	21.1 min	84.3%	87.1%	CCOC(=O)C1=NN(c2ccc(Cl)cc2Cl)C(C)(C(=O)OCC)C1 (configuration not stated) [Mefenpyr-diethyl]
96%	73.3%	93.5%	102%	17.8 min	105%	100%	CC(C)N(C(=O)C(=O)[O-])c1ccccc1 [Propachlor-OXA]
98.1%	103%	95.6%	93.8%	19.2 min	104%	106%	CCOc1ccc(NC(=O)OC(C)C)cc1OCC [Diethofencarb]
76.8%	79.4%	82.1%	91.7%	12.3 min	105%	107%	O=C1C=CC(=C2NC=CNC2=O)C=C1 [Amoxicillin-EP-Impurity-F]
97%	93.4%	90.7%	103%	19.6 min	94.7%	101%	COc1nc(NC(=O)[N-]S(=O)(=O)c2ccccc2C(F)(F)F)nc(C(F)(F)F)n1 [Tritosulfuron]
95.6%	94%	93.5%	91.2%	19.3 min	104%	106%	COc1c(Cl)ccc(Cl)c1C(=O)[O-] [Dicamba]
82.7%	93.3%	103%	62.5%	20.6 min	26.4%		CCOC(=O)C1=NOC(c2ccccc2)(c2ccccc2)C1 [Isoxadifen-ethyl]
87.8%	71.9%	71.8%	89.1%	19 min	111%	55.6%	CC12CCC(=O)C=C1CCC1C2C(O)CC2(C)C(C(=O)CO)CCC12 (configuration not stated) [Corticosteron]
90.1%		95.7%	68.4%	14.5 min	104%	108%	C[NH+]1CCN2c3ccccc3Cc3ccccc3C2C1 (configuration not stated) [Mianserin]
90.1%	94.8%	90%	78.7%	14.6 min	100%	73.2%	CCCC1CC(C(=O)NC(C(C)Cl)C2OC(SC)C(O)C(O)C2O)[NH+](C)C1 (configuration not stated) [Clindamycin]
95.4%	98.7%	102%	94.8%	19.3 min	120%	95.3%	CCOc1cc(CC(=O)NC(CC(C)C)c2ccccc2N2CCCCC2)ccc1C(=O)[O-] (configuration not stated) [Repaglinide]
88.7%	108%	93.3%	114%	11.2 min	103%	135%	CC1COc2c(N3CCN(C)CC3)c(F)cc3c(=O)c(C(=O)[O-])cn1c23 (configuration not stated) [Levofloxacin]
96.6%	97.3%	94.8%	92.2%	15.7 min	105%	102%	NC(=O)N1c2ccccc2C2OC2c2ccccc21 (configuration not stated) [Carbamazepin-10-11-epoxid]
84.2%	114%	69.5%	33.9%	17.9 min	99.1%		CCCCCCCCCCCC[N+](C)(C)C [Dodecyltrimethylammonium]
77.1%	86%	85.7%	88.7%	13 min	101%	102%	CCNc1nc(NCC)nc(OC)n1 [Simeton]
98.5%	93.6%	88.1%	96.2%	10.7 min	103%	95.5%	Nc1ccc(S(=O)(=O)[N-]c2ccccn2)cc1 [Sulfapyridin]
76.7%		79.1%		10.3 min	101%		CC(=O)Nc1ccc(O)cc1 [Paracetamol (=3-Acetamidophenol)]
75.9%	68.2%	74%	74.9%	11.5 min	104%		CCn1cc(C(=O)[O-])c(=O)c2cc(F)c(N3CC[NH2+]CC3)cc21 [Norfloxacin]
80.1%	95.7%	87.5%	98.8%	17 min	90.2%	90.4%	CCC1OC(=O)C(C)C(OC2CC(C)(OC)C(O)C(C)O2)C(C)C(OC2OC(C)CC([NH+](C)C)C2O)C(C)(O)CC(C)C(=NOCOCCOC)C(C)C(O)C1(C)O (configuration not stated) [Roxithromycin]
85.5%	85.9%	80.1%	88%	18.3 min	99.1%	105%	CCCCc1nc(Cl)c(CO)n1Cc1ccc(-c2ccccc2-c2nn[nH]n2)cc1 [Losartan]
88.2%	97.5%	95.8%	96.2%	17.5 min	97.7%	104%	CC(C)(C)Nc1nc(N)nc(Cl)n1 [Terbutylazin-desethyl]
89%	95.6%	91.9%	144%	15.1 min	90.5%	94.2%	COc1ccc(C2Sc3ccccc3N(CC[NH+](C)C)C(=O)C2OC(C)=O)cc1 (configuration not stated) [Diltiazem]
97.8%	96.3%	95.8%	92.2%	17.4 min	107%	100%	O=C([O-])COCC[NH+]1CCN(C(c2ccccc2)c2ccc(Cl)cc2)CC1 (configuration not stated) [Cetirizin]
103%	104%	86.1%	108%	22.2 min	61.8%	63.2%	CC1COC(=O)c2cc3c(cc21)C(C)(C)C(C)C3(C)C (configuration not stated) [Galaxolidon]
80.2%	62.2%	66.4%	85.8%	16 min	71.5%		CC(=O)N1CCN(c2ccc(OCC3COC(Cn4cc[nH+]c4)(c4ccc(Cl)cc4Cl)O3)cc2)CC1 (configuration not stated) [Ketoconazol]
104%	93.9%	92.6%	87%	16.5 min	110%	106%	COC(=O)c1csc(C)c1S(=O)(=O)[N-]C(=O)n1nc(OC)n(C)c1=O [Thiencarbazone]
